In PubChem BioAssay (NCI) one finds TGI and GI50 data, which are given here for 16 compounds.

Common to all, as to test: NCI-60 cell line screen, 48 h
Assay [1] has as its system NCI-H226 lung.
Assay [2] concerns DMS 273 small cell lung.
For assay [3], the system named is OVCAR-8 ovarian.
Assay [4] has as its system M14 melanoma.
Assay [5] concerns RPMI-8226 leukemia.
The subject of assay [6] is M19-MEL melanoma.
The test system of assay [7] is TK-10 renal.
The subject of assay [8] is UACC-62 melanoma.
Assay [9] concerns LOX IMVI melanoma.
For assay [10], the system named is DLD-1 colon.

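A five-concentration, 48-hour dose response in 96-well plates underlies each endpoint, interpolated linearly between surrounding concentrations. GI50 = concentration required for 50% inhibition of growth. TGI: concentration producing complete growth inhibition.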

Regarding `Cc1cc2c(C)n(Cc3ccc(Cl)cc3Cl)nc2c(C#N)c1C`, the TGI is > 56.2 µM in assay [1]; > 100 µM in [2]; > 100 µM in assay [3]; > 100 µM in assay [4]; > 100 µM in assay [5]; > 100 µM in [6]. Moreover, the TGI in assay [7] is 68.4 µM; in assay [8] it was > 100 µM; in assay [9], > 100 µM; in [10], > 100 µM.

With `c1ccc2c(C3NCCc4[nH]cnc43)cccc2c1` (configuration not stated), the TGI in assay [1], in assay [2], in [3], in assay [4], in assay [5] and in assay [6] was > 100 µM in each case. Also, the TGI in assay [7], in assay [8], in assay [9] and in [10] was > 100 µM throughout.

Regarding `CCC1CN2CCc3cc(OC)c(OC)cc3C2CC1CC1c2cc(OC)c(OC)cc2CCN1C(=O)C1CCCN1C(=O)OCc1ccccc1` (configuration not stated), the TGI stood at 30.9 µM in assay [1]; 30.3 µM in assay [2]; 31.7 µM in assay [3]; 30.9 µM in assay [4]; 36.5 µM in assay [5]; 28.8 µM in assay [6]. The TGI in [7] was 38.6 µM; in [8] it was 29.7 µM; in assay [9], 29.1 µM; in assay [10], 31 µM.

For the compound `O=C1C(=O)N(c2ccc(Cl)c(Cl)c2)C(=O)C(=O)C1c1nc2ccccc2s1`, the TGI in assay [1], in assay [2], in [3], in [4], in [5] and in assay [6] was > 100 µM in each case. For the same compound, the TGI in assay [7], in assay [8], in assay [9] and in [10] was > 100 µM throughout.

Regarding `CCOC(=O)C(=O)Nc1c(CC)cccc1C(C)C`, the TGI in [1], in assay [2], in [3], in assay [4], in [5] and in assay [6] was > 100 µM in each case. Further, the TGI in assay [7], in assay [8], in assay [9] and in [10] was > 100 µM each time.

For `O=C1C=C(Br)c2c(-c3ccccc3)oc3cccc1c23`, the TGI is > 100 µM in assay [1]; > 100 µM in assay [2]; > 100 µM in assay [3]; 98.2 µM in [4]; > 79 µM in assay [5]; > 100 µM in assay [6]. Also, the TGI in [7] is 82.1 µM; in assay [8] it was > 100 µM; in assay [9], > 65.4 µM; in [10], > 100 µM.

Turning to `N#CC(C(=O)CCC(=O)Nc1cccc(Cl)c1)c1ccccc1` (configuration not stated), the TGI in assay [1], in assay [2], in assay [3], in assay [4], in assay [5] and in assay [6] was > 100 µM each time. For the same compound, the TGI in [7], in assay [8], in [9] and in assay [10] was > 100 µM each time.

For the compound `CCOC(=O)c1oc2ccc(OC)c3c2c1CCC3`, the TGI in assay [1], in assay [2], in assay [3], in assay [4], in assay [5] and in assay [6] was > 100 µM in each case. In addition, the TGI in [7], in [8], in assay [9] and in assay [10] was > 100 µM throughout.

Turning to `COc1cc(C(=O)C/C(CCC(=O)Nc2ccccc2[N+](=O)[O-])=N\NC(=O)CC#N)ccc1O`, the TGI in [1], in assay [2], in assay [3], in assay [4], in assay [5] and in [6] was > 100 µM in each case. For the same compound, the TGI in assay [7], in [8], in assay [9] and in assay [10] was > 100 µM in each case.

Consider `CCOC(=O)C1Oc2ccc([N+](=O)[O-])c3c2C1(O)CCC3` (configuration not stated), for which the TGI in assay [1], in [2], in assay [3], in [4], in [5] and in [6] was > 100 µM each time. Moreover, the TGI in assay [7], in assay [8], in [9] and in assay [10] was > 100 µM in each case.

As for `CCOC(=O)C1=C(NC)OC/C1=N\NC(=O)c1ccccc1O`, the TGI in assay [1] was 60.6 µM; in assay [2] it was > 100 µM; in [3], > 100 µM; in assay [4], > 100 µM; in assay [5] it was > 100 µM; in assay [6] it was > 100 µM. In addition, the TGI is > 100 µM in assay [7], 80.5 µM in assay [8], 70.4 µM in assay [9] and > 100 µM in assay [10].

As to `CCOc1ccc2nc(NC(=O)c3c/c(=N\NC(=O)C[N+](C)(C)C)c4ccc(O)cc4o3)sc2c1`, the TGI in assay [1] was 12 µM; in assay [2] it was 28.7 µM; in assay [3] it was 7.76 µM; in [4], 3.1 µM; in assay [5] it was 8.31 µM; in [6], 0.501 µM. Besides, the TGI in assay [7] turned out to be 36.5 µM; in assay [8] it was 3.21 µM; in assay [9], 5.73 µM; in [10], 13.4 µM.

As for `C=C1COC(/C=C(\C)CC/C=C(\C)CCl)C1` (configuration not stated), the TGI in assay [1], in assay [2], in [3], in assay [4], in assay [5] and in assay [6] was > 100 µM throughout. For the same compound, the TGI in assay [7], in assay [8], in [9] and in assay [10] was > 100 µM throughout.

As for `COc1ccc(OC)c(NC(=O)CCC/C(CC(=O)c2ccc(O)c(OC)c2)=N\NC(=O)C[N+](C)(C)C)c1`, the TGI in assay [1], in assay [2], in [3], in [4], in [5] and in assay [6] was > 100 µM throughout. The TGI in assay [7], in assay [8], in assay [9] and in [10] was > 100 µM throughout.

For the compound `CCCCCCCCCCCC(=O)OCCOCCOCCOCCOCCOCc1ccc(OC)cc1`, the TGI in assay [1], in [2], in [3], in assay [4], in assay [5] and in assay [6] was > 100 µM throughout. For the same compound, the TGI in assay [7], in assay [8], in [9] and in assay [10] was > 100 µM throughout.

On to `COC1CC(OS(=O)(=O)c2ccc(C)cc2)C(OC(=O)c2ccccc2)C(C)O1` (configuration not stated), for which the GI50 in assay [1], in assay [3], in assay [4], in assay [6], in assay [7] and in assay [9] was > 100 µM each time. Moreover, in assay [10], the GI50 was > 100 µM. The TGI is > 100 µM in [1]; > 10 µM in assay [2]; > 100 µM in assay [3]; > 100 µM in assay [4]; > 100 µM in assay [5]; > 100 µM in [6]. The TGI in assay [7], in assay [8], in [9] and in [10] was > 100 µM each time.
